Patent US20240000821A1, “CHEMICAL INHIBITORS AGAINST KINASES TO BLOCK TELOMERE ELONGATION IN CANCER” (THE JOHNS HOPKINS UNIVERSITY, priority 2016, published 2024)

Key:
[1] = tested on: SL13 cells; experiment: Inhibition of SVA mediated telomere elongation (telomere Southern blot); assay type: cell-based, mouse; settings: for concentration dependence of the block of telomere elongation: several concentrations, FIG. 6, FIG. 7B
Procedure: Inhibition of SVA mediated telomere elongation. First, 2×10^5 SL13 cells were plated onto a 6-well dish in DMEM (Gibco) with 10% FBS (Sigma) and 1% Penicillin-Streptomycin-Glutamine (Gibco). SL13 cells are a mouse fibroblast line that was derived as described (Lee et al., 299(Pt 1) BIOCHEM. J. 123-28 (2015)). After 24 hours, the drug or vehicle was added at the indicated concentration for the duration of the experiment. 24 hours later, SVA virus was added at an MOI of 0.5. 2 population doublings were estimated during the initial 48 hours; therefore 400,000 transduction units of SVA were added to 800,000 cells. Media was changed at 24 hours post transduction, and cell pellets were collected at 2 and 6 days post transduction.
Telomere Southern Blot. Telomere length was measured by telomere restriction fragment Southern blot. Genomic DNA was extracted using Puregene Core Kit A (Qiagen). 1-3 μg of gDNA was digested with MseI (NEB) and loaded onto a 0.7% TAE Agarose gel. The gel was run at 37 V for 16 hours, then denatured for 30 minutes in 0.5 M NaOH and 1.5 M NaCl, then neutralized for 30 minutes in 1.5 M NaCl and 0.5 M Tris-HCl pH 7.4. The DNA was transferred from the gel to a nylon membrane (Amersham Hybond N+) by the weighted method overnight. Next, DNA was crosslinked to the membrane with a UV Stratalinker (Stratagene). The membrane was then pre-incubated for 2 hours at 65° C. with Church's Buffer. Telomere probe and 2-log ladder (Life Technologies) was then end-labeled with Klenow fragment polymerase (NEB) 33 μM of dATP, dTTP, dGTP and 50 μCi of α-32P dCTP (3000 Ci/mmol). Unincorporated nucleotides were removed by running on a G50 column (GE Healthcare). Labeled probe was counted, denatured at 100° C., and 10^6 counts/mL telomere probe and 2×10^4 counts/mL of 2-log ladder were added. The membrane was probed overnight at 65° C. The next day, the membrane was washed twice with 2×SSC 0.1% SDS, then twice with 0.5×SSC 0.1 SDS. The membrane was exposed on a phosphorimager (GE Healthcare) and imaged on a STORM scanner (GE Healthcare).

[2] = tested on: CK1; settings: Selleckchem, read-out: in vitro IC50; cited from earlier work
[3] = tested on: mouse fibroblasts; experiment: toxicity to mouse fibroblasts; assay type: cell-based; settings: data not shown
[4] = 0.5 μM, days 2 and 6 post SVA transduction, FIG. 7A
[5] = 10 μM, days 2 and 6 post SVA transduction

## Nc1ncnc2c1c(I)cn2[C@@H]1O[C@H](CO)[C@@H](O)[C@H]1O [5-Iodotubercidin]
[1]; [4]
  effect on telomere elongation by SVA: did not affect telomere elongation

## Cc1sc2c(c1C)C(c1ccc(Cl)cc1)=N[C@@H](CC(=O)OC(C)(C)C)c1nnc(C)n1-2 [JQ1]
[1]; 11 nM, days 2 and 6 post SVA transduction, FIG. 6
  effect on telomere elongation by SVA: virtually no effect on telomere elongation
[1]; 33 nM, days 2 and 6 post SVA transduction, FIG. 6
  effect on telomere elongation by SVA: intermediate telomere length
[1]; 0.1 μM, telomere length day 6 vs day 2 post SVA transduction, FIG. 5A
  effect on telomere elongation by SVA: blocked telomere elongation
[1]; 100 nM, days 2 and 6 post SVA transduction, FIG. 6
  effect on telomere elongation by SVA: blocked nearly all SVA mediated elongation
[1]
  concentration dependence of the block of telomere elongation: titrates with its concentration

## NC(=O)c1ccc(-c2nc(-c3ccc4c(c3)OCCO4)c(-c3ccccn3)[nH]2)cc1 [Compound D4476]
[2]
  IC50: […]
[3]
  tolerated concentration: […]
[1]; 0.37 μM, compared to DMSO control, FIG. 7B
  effect on telomere elongation by SVA: able to block some telomere elongation
[1]; [5]
  effect on telomere elongation by SVA: blocked telomere elongation
[1]; lower concentrations (3.33 μM, 1.11 μM or 0.37 μM), FIG. 7B
  effect on telomere elongation by SVA: less blockage of telomere elongation
[1]
  concentration dependence of the block of telomere elongation: […]

## O=c1cc(-c2cccc3c2Sc2ccccc2S3)oc(N2CCOCC2)c1 [KU-55933]
[1]; [5]
  effect on telomere elongation by SVA: blockage

## Nc1[nH]nc2nnc(-c3c(-c4ccccc4)nn4ccccc34)cc12 [FR-180204]
[1]; [5]
  effect on telomere elongation by SVA: minimal effect on telomere elongation

## Cn1nccc1Nc1nccc(-c2ccn([C@H](CO)c3ccc(Cl)c(F)c3)c(=O)c2)n1 [GDC-0994]
[1]; [5]
  effect on telomere elongation by SVA: blocked telomere elongation

## Cc1sc2c(c1C)C(c1ccc(Cl)cc1)=N[C@@H](CC(=O)Nc1ccc(O)cc1)c1nnc(C)n1-2 [OTX015]
[1]; 0.4 μM, days 2 and 6 post SVA transduction, FIG. 5B
  effect on telomere elongation by SVA: blocked SVA induced telomere elongation

## Cc1cc(/N=N/c2ccc(S(=O)(=O)Nc3ccccn3)cc2)c(N)cc1O [MS436]
[1]; 5 μM, days 2 and 6 post SVA transduction
  effect on telomere elongation by SVA: blocked SVA induced telomere elongation

## COc1cc2c(cc1-c1c(C)noc1C)ncc1[nH]c(=O)n([C@H](C)c3ccccn3)c12 [I-BET151]
[1]; 1 μM, days 2 and 6 post SVA transduction, FIG. 5C
  effect on telomere elongation by SVA: blocked SVA induced telomere elongation

## COc1cc(OC)c(C=C2C(O)=Nc3ccccc32)c(OC)c1 [IC261]
[2]
  IC50: 16 µM
[3]; 2.5 μM
  cell death: significant cell death
[1]; [4]
  effect on telomere elongation by SVA: did not affect telomere elongation
